# Test results reported in ChEMBL document CHEMBL1131045, “Indole-2-carboxamide inhibitors of human liver glycogen phosphorylase” (J Med Chem, 1998).
# “And” between values parts separate entries of the source, which are not always exact repeats. Identical values can stand only once.
# Experiments:
# [1] = biological target: T1, Glycogen phosphorylase, liver form (Homo sapiens, UniProt P06737); test: In vitro inhibitory activity against recombinant human liver glycogen phosphorylase a (rHLGPa) catalyzed release of phosphate from glucose-1-phosphate.
# T1 sequence (P06737 whole entry): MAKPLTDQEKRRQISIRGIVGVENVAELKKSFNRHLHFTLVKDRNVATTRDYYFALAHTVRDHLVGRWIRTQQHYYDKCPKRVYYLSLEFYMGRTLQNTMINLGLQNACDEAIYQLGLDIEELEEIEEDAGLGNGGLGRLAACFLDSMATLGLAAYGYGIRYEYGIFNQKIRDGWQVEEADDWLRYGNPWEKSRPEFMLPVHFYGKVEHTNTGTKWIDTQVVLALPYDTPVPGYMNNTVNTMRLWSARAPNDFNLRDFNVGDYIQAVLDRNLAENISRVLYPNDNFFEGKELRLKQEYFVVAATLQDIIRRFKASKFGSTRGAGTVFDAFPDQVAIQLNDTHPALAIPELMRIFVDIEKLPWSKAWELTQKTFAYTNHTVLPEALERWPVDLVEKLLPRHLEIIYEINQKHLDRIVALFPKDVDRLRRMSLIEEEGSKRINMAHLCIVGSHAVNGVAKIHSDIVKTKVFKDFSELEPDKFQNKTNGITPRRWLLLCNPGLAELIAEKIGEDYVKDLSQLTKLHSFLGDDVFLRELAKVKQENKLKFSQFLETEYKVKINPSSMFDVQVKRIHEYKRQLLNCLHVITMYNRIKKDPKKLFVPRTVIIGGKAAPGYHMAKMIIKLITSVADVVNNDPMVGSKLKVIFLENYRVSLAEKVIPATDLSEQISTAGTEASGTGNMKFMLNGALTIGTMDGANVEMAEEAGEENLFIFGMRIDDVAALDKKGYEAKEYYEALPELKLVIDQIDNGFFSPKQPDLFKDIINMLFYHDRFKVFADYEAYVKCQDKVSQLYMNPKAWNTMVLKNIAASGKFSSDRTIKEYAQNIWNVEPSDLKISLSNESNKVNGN
# Mus musculus [2] = test: Hypoglycemic responses resulting from oral dosing in diabetic ob/ob mice(inactive dose), po; format: functional
# [3] = Inhibition of forskolin-stimulated glycogenolysis in SK-HEP-1 cells; format: functional, cell-based; conditions: Homo sapiens, SK-HEP1
# Mus musculus [4] = test: Hypoglycemic responses resulting from oral dosing in diabetic ob/ob mice(active dose), po; format: functional
# Mus musculus [5] = species on record: Mus musculus; test: Percent decrease in drug -treated plasma glucose concentration, relative to vehicle treated control diabetic ob/ob mice; format: functional
IC50 [1] [nM],IC50 [3] [nM],SMILES,Dose (Mus musculus [2]) [mg/kg],Dose (Mus musculus [4]),Glucose (Mus musculus [5])
97,3300,CN(C)C(=O)[C@H](O)[C@H](Cc1ccccc1)NC(=O)c1cc2cc(Br)ccc2[nH]1,50,,
170,6200,CN(C)C(=O)[C@H](O)[C@H](Cc1ccccc1)NC(=O)c1cc2cc(F)ccc2[nH]1,10,25 mg/kg,33%
1700,> 30000,O=C(N[C@@H](Cc1ccccc1)C(=O)O)c1cc2cc(Cl)ccc2[nH]1,,,
1800,,CN(C)C(=O)[C@@H](O)[C@@H](Cc1ccccc1)NC(=O)c1cc2cc(Cl)ccc2[nH]1,,,
430,2300,CN(C)C(=O)[C@H](Cc1ccccc1)NC(=O)c1cc2cc(F)ccc2[nH]1,50,,
1700,,CN(C)C(=O)[C@H](O)[C@@H](Cc1ccccc1)NC(=O)c1cc2cc(Cl)ccc2[nH]1,,,
,1900,O=C(N[C@@H](Cc1ccc(F)cc1)C(=O)N1CCC(O)CC1)c1cc2cc(Cl)ccc2[nH]1,5,,44% and 45% and 26% and 24%
6500,,CN(C)C(=O)[C@H](O)[C@H](CC1CCCCC1)NC(=O)c1cc2cc(Cl)ccc2[nH]1,,,
260,5100,O=C(N[C@@H](Cc1ccccc1)C(=O)N1CCC(O)CC1)c1cc2cc(Cl)ccc2[nH]1,10,25 mg/kg,36%
140,> 30000,COC(=O)[C@H](Cc1ccccc1)NC(=O)c1cc2cc(Cl)ccc2[nH]1,50,,
110,1500,CN(C)C(=O)[C@H](O)[C@H](Cc1ccccc1)NC(=O)c1cc2cc(Cl)ccc2[nH]1,15,50 mg/kg and 25 mg/kg,40% and 32%
82,1900,CN(C)C(=O)[C@H](Cc1ccccc1)NC(=O)c1cc2cc(Cl)ccc2[nH]1,,,
110,5200,CNC(=O)[C@H](Cc1ccccc1)NC(=O)c1cc2cc(Cl)ccc2[nH]1,25,50 mg/kg,49%
8700,,CN(C)C(=O)[C@@H](O)[C@H](Cc1ccccc1)NC(=O)c1cc2cc(Cl)ccc2[nH]1,50,,
> 10000,,O=C(N[C@H](CO)Cc1ccccc1)c1cc2cc(Cl)ccc2[nH]1,,,
6800,,O=C(N[C@@H](Cc1ccccc1)[C@@H](O)CO)c1cc2cc(Cl)ccc2[nH]1,,,
330,> 30000,O=C(N[C@@H](Cc1ccccc1)[C@@H](O)C(=O)O)c1cc2cc(Cl)ccc2[nH]1,,,
110,1400,CN(C)C(=O)[C@H](Cc1ccccc1)NC(=O)c1cc2cc(Br)ccc2[nH]1,50,,
680,> 30000,CNC(=O)[C@H](O)[C@H](Cc1ccccc1)NC(=O)c1cc2cc(Cl)ccc2[nH]1,,,
260,12000,CN(C)C(=O)[C@@H](Cc1ccccc1)NC(=O)c1cc2cc(Cl)ccc2[nH]1,,,
210,13000,COC(=O)[C@H](O)[C@H](Cc1ccccc1)NC(=O)c1cc2cc(Cl)ccc2[nH]1,50,,
440,> 30000,CN(C)C(=O)[C@H](O)[C@H](Cc1ccccc1)NC(=O)c1cc2ccccc2[nH]1,,,
1700,,NC(=O)[C@H](O)[C@H](Cc1ccccc1)NC(=O)c1cc2cc(Cl)ccc2[nH]1,,,
400,7800,CN(C)C(=O)[C@H](Cc1ccccc1)NC(=O)c1cc2ccccc2[nH]1,25,50 mg/kg,40%
220,12000,CNC(=O)[C@@H](Cc1ccccc1)NC(=O)c1cc2cc(Cl)ccc2[nH]1,25,50 mg/kg,39%
4700,,COc1ccc2[nH]c(C(=O)N[C@@H](Cc3ccccc3)C(=O)N(C)C)cc2c1,,,
